Values of other authors, collected in patent US20240122923A1, “METHODS OF TREATING HIDRADENITIS SUPPURATIVA” (AbbVie Inc., priority 2022, published 2024).

System: HS
Conditions: 24-week treatment period; cited from earlier work

For etanercept, the “improvement of HS” value is given as “failed to show improvement of HS”.
